Biological target: Aurora B/INCENP (Homo sapiens, UniProt Q96GD4)
Assay: Inhibition of AIK: Aurora B/INCENP Direct Fluorescence Polarization (IMAP) kinase assay
Assay type: biochemical
Conditions: IC50 against AIK B; 10 uM ATP, 0.8 nM Aurora B/INCENP, 45 min at room temperature, FP readout; values given as bins
Procedure: Detection of the reaction product is performed by addition of Progressive IMAP binding reagent (Molecular Devices). Reaction product may be determined quantitatively by FP using an Analyst HT plate reader (Molecular Devices) with an excitation wavelength at 485 nm and emission at 530 nm and using a Fluorescein 505 dichroic mirror.
The assay reaction may be initiated as follows: 2 ul of (3x) 300 nM Fl-Peptide/30 uM ATP was added to each well of the plate, followed by the addition of 2 ul of (3x) inhibitor (2 fold serial dilutions for 11 data points for each inhibitor) containing 15% DMSO. Two microliters of (3x) 2.4 nM AuroraB/INCENP solution may be added to initiate the reaction (final enzyme concentration was 0.8 nM for Aurora B/INCENP). The reaction mixture may then be incubated at room temperature for 45 min, and quenched and developed by addition of 20 ul of 1 to 400 diluted Progressive IMAP binding reagent in 1x proprietary Progressive IMAP binding buffer A. Fluorescence polarization readings of the resulting reaction mixtures may be measured after a 60-minute incubation at room temperature.
IC50 values may be calculated by non-linear curve fitting of the compound concentrations and fluorescent polarization values to the standard IC50 equation.

Chain of Aurora B/INCENP (Q96GD4 whole entry): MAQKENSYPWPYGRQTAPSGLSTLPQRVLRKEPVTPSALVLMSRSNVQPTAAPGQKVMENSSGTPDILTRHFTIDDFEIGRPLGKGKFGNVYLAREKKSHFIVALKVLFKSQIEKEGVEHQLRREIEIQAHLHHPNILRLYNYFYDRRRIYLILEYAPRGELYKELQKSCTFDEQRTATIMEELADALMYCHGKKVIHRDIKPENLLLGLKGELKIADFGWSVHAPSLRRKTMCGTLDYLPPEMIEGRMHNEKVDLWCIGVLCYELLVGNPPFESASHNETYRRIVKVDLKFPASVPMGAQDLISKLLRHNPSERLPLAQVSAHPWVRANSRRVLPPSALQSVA
Chain of Aurora B/INCENP (Q9NQS7 whole entry partner): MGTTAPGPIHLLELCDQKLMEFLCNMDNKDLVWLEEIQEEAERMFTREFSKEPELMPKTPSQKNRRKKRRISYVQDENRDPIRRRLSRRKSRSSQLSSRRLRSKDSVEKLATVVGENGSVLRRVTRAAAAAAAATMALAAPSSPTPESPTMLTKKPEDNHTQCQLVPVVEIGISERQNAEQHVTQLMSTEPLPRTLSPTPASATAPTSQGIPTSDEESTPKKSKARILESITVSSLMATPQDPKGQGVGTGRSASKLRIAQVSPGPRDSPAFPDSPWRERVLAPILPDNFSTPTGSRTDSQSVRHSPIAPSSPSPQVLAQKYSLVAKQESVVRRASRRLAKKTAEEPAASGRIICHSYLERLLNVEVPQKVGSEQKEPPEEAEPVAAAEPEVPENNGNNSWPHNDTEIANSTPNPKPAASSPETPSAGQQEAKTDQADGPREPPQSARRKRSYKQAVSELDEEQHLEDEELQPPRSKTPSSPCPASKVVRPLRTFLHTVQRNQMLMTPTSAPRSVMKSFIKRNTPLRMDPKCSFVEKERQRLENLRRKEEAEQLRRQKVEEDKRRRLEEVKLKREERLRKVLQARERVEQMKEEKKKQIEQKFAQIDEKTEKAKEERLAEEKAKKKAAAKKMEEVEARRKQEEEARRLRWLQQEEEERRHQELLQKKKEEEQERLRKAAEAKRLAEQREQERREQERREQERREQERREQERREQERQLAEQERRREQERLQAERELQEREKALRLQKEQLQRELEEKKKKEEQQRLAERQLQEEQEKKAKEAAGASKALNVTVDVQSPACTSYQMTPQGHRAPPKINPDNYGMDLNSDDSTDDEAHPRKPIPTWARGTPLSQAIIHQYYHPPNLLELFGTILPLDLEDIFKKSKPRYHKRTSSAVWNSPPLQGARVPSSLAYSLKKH

Row | Structure (SMILES) | IC50 [nM]
1 | CCS(=O)(=O)c1cccc(-c2cnc(OCCCO)c3[nH]c4ncc(C)cc4c23)c1 [Compound 55, 3-[5-(3-Ethanesulfonyl-phenyl)-3-methyl-9H-dipyrido[2,3-b;4',3'-d]pyrrol-8-yloxy]-propan-1-ol] | ≤ 5
2 | CCS(=O)(=O)c1cccc(-c2ccc(OCC3CCNCC3)c3[nH]c4ncc(C)cc4c23)c1 [Compound 185, 5-(3-(ethylsulfonyl)phenyl)-3-methyl-8-(piperidin-4-ylmethoxy)-9H-pyrido[2,3-b]indole] | ≤ 5
3 | CCS(=O)(=O)c1cccc(-c2cnc(OCC3CCN(C)CC3)c3[nH]c4ncc(Cl)cc4c23)c1 [Compound 72, 3-Chloro-5-(3-ethanesulfonyl-phenyl)-8-(1-methyl-piperidin-4-ylmethoxy)-9H-dipyrido[2,3-b;4',3'-d]pyrrole] | ≤ 5
4 | CCS(=O)(=O)c1cccc(-c2ccc(OC)c3[nH]c4ncc(C)cc4c23)c1 [Compound 157] | ≤ 5
5 | CCS(=O)(=O)c1cccc(-c2cc(C(=O)NCCO)c(C)c3[nH]c4ncc(C)cc4c23)c1 [Compound 101, 5-(3-(ethylsulfonyl)phenyl)-N-(2-hydroxyethyl)-3,8-dimethyl-9H-pyrido[2,3-b]indole-7-carboxamide] | ≤ 5
6 | CCS(=O)(=O)c1cccc(-c2cnc(Cl)c3[nH]c4ncc(C)cc4c23)c1 [Compound 40, 8-chloro-5-[3-(ethylsulfonyl)phenyl]-3-methyl-9H-pyrido[4',3':4,5]pyrrolo[2,3-b]pyridine] | ≤ 5
7 | CCS(=O)(=O)c1cccc(-c2cnc(OC[C@H](C)O)c3[nH]c4ncc(C)cc4c23)c1 [Compound 62, (S)-1-[5-(3-Ethanesulfonyl-phenyl)-3-methyl-9H-dipyrido[2,3-b;4',3'-d]pyrrol-8-yloxy]-propan-2-ol] | ≤ 5
8 | CCS(=O)(=O)c1cccc(-c2cc(C(N)=O)cc3[nH]c4ncc(C)cc4c23)c1 [Compound 128, 5-(3-Ethanesulfonyl-phenyl)-3-methyl-9H-pyrido[2,3-b]indole-7-carboxylic acid amide] | ≤ 5
9 | CCS(=O)(=O)c1cccc(-c2cc(C(=O)NC[C@H](C)O)c(C)c3[nH]c4ncc(C)cc4c23)c1 [Compound 100, (S)-5-(3-(ethylsulfonyl)phenyl)-N-(2-hydroxypropyl)-3,8-dimethyl-9H-pyrido[2,3-b]indole-7-carboxamide] | ≤ 5
10 | CNS(=O)(=O)c1cccc(-c2ccc(C)c3[nH]c4ncc(C)cc4c23)c1 [Compound 15, 3-(3,8-dimethyl-9H-pyrido[2,3-b]indol-5-yl)-N-methylbenzenesulfonamide] | ≤ 5
11 | CCNS(=O)(=O)c1cccc(-c2ccc(OC)c3[nH]c4ncc(C)cc4c23)c1 [Compound 170, N-ethyl-3-(8-methoxy-3-methyl-9H-pyrido[2,3-b]indol-5-yl)benzenesulfonamide] | ≤ 5
12 | CCS(=O)(=O)c1cccc(-c2ccc(O)c3[nH]c4ncc(C)cc4c23)c1 [Compound 158, 5-(3-(ethylsulfonyl)phenyl)-3-methyl-9H-pyrido[2,3-b]indol-8-ol] | ≤ 5
13 | CCS(=O)(=O)c1cccc(-c2cc(C(=O)O)cc3[nH]c4ncc(C)cc4c23)c1 [Compound 140, 5-(3-Ethanesulfonyl-phenyl)-3-methyl-9H-pyrido[2,3-b]indole-7-carboxylic acid] | ≤ 5

Further lines, results first:

Row | IC50 [nM] | Structure (SMILES)
14 | ≤ 5 | Cc1cnc2[nH]c3c(OC[C@@H](O)CN(C)C)ccc(-c4cccc(S(=O)(=O)C5CC5)c4)c3c2c1 [Compound 313, (S)-1-(5-(3-(cyclopropylsulfonyl)phenyl)-3-methyl-9H-pyrido[2,3-b]indol-8-yloxy)-3-(dimethylamino)propan-2-ol]
15 | ≤ 5 | CCS(=O)(=O)c1cccc(-c2ccc(OCC3CCN(C)CC3)c3[nH]c4ncc(Cl)cc4c23)c1 [Compound 200, 3-chloro-5-(3-(ethylsulfonyl)phenyl)-8-((1-methylpiperidin-4-yl)methoxy)-9H-pyrido[2,3-b]indole]
16 | ≤ 5 | CCN(CCCOc1ccc(-c2cccc(S(=O)(=O)C3CC3)c2)c2c1[nH]c1ncc(Cl)cc12)CCOP(=O)(O)O [Compound 299, 2-((3-(3-chloro-5-(3-(cyclopropylsulfonyl)phenyl)-9H-pyrido[2,3-b]indol-8-yloxy)propyl)(ethyl)ammo)ethyl dihydrogen phosphate]
17 | ≤ 5 | CCN(CCO)CCCOc1ccc(-c2cccc(S(=O)(=O)C3CC3)c2)c2c1[nH]c1ncc(C)cc12 [Compound 270, 2-((3-(5-(3-(cyclopropylsulfonyl)phenyl)-3-methyl-9H-pyrido[2,3-b]indol-8-yloxy)propyl)(ethyl)amino)ethanol]
18 | ≤ 5 | Cc1cnc2[nH]c3c(OCCCN(C)C)ccc(-c4cccc(S(=O)(=O)C5CC5)c4)c3c2c1 [Compound 194, 3-(5-(3-(cyclopropylsulfonyl)phenyl)-3-methyl-9H-pyrido[2,3-b]indol-8-yloxy)-N,N-dimethylpropan-1-amine]
19 | ≤ 5 | CCS(=O)(=O)c1cccc(-c2ccc(OC[C@H](O)CO)c3[nH]c4ncc(C)cc4c23)c1 [Compound 231, (R)-3-(5-(3-(ethylsulfonyl)phenyl)-3-methyl-9H-pyrido[2,3-b]indol-8-yloxy)propane-1,2-diol]
20 | ≤ 5 | CCS(=O)(=O)c1cccc(-c2ccc(OCCCN(C)C)c3[nH]c4ncc(Cl)cc4c23)c1 [Compound 220, 3-(3-chloro-5-(3-(ethylsulfonyl)phenyl)-9H-pyrido[2,3-b]indol-8-yloxy)-N,N-dimethylpropan-1-amine]
21 | ≤ 5 | CCS(=O)(=O)c1cccc(-c2ccc(OCCCO)c3[nH]c4ncc(C)cc4c23)c1 [Compound 217, 3-(5-(3-(ethylsulfonyl)phenyl)-3-methyl-9H-pyrido[2,3-b]indol-8-yloxy)propan-1-ol]
22 | ≤ 5 | CCS(=O)(=O)c1cccc(-c2ccc(OCCCN(C)C)c3[nH]c4ncc(C)cc4c23)c1 [Compound 206, 3-(5-(3-(ethylsulfonyl)phenyl)-3-methyl-9H-pyrido[2,3-b]indol-8-yloxy)-N,N-dimethylpropan-1-amine]
23 | ≤ 5 | CCS(=O)(=O)c1cccc(-c2ccc(OCC3CCNCC3)c3[nH]c4ncc(Cl)cc4c23)c1 [Compound 201, 3-chloro-5-(3-(ethylsulfonyl)phenyl)-8-(piperidin-4-ylmethoxy)-9H-pyrido[2,3-b]indole]

— patent EP2145877A2, “Aurora Kinase inhibitors” (Takeda Pharmaceutical Company Limited, priority 2006, dated 2008)
